Experimental data as given in ChEMBL document CHEMBL1152576, “E-Combretastatin and E-resveratrol structural modifications: antimicrobial and cancer cell growth inhibitory beta-E-nitrostyrenes” (Bioorg Med Chem, 2009).
≈ marks a conversion by molar mass, not a printed value. Calls of active or inactive are those of the source. The rule behind the calls is not given here.

Legend:
Enterococcus faecalis [1] = test: Antimicrobial activity against Enterococcus faecalis ATCC 29212 by broth microdilution susceptibility assay; assay type: functional
Streptococcus pneumoniae [2] = test: Antimicrobial activity against Streptococcus pneumoniae ATCC 6303 after 24 hrs by broth microdilution susceptibility assay; assay type: functional; settings: ATCC 6303, 24 h
A498 = test: Cytotoxicity against human A498 cells after 48 hrs by sulforhodamine B assay; assay type: functional
Cryptococcus neoformans [3] = test: Antifungal activity against Cryptococcus neoformans ATCC 90112 after 72 hrs by broth microdilution susceptibility assay; assay type: functional; settings: ATCC 90112, 72 h
Escherichia coli [4] = test: Antimicrobial activity against Escherichia coli ATCC 25922 by broth microdilution susceptibility assay; assay type: functional
Cryptococcus neoformans [5] = test: Antimicrobial activity against Cryptococcus neoformans ATCC 90112 assessed clear zone in inhibition per disk by CLSI disk diffusion susceptibility assay; assay type: functional
Micrococcus luteus [6] = test: Antimicrobial activity against Micrococcus luteus Presque Isle 456 assessed clear zone in inhibition per disk by CLSI disk diffusion susceptibility assay; assay type: functional
OVCAR-3 = test: Cytotoxicity against human OVCAR-3 cells after 48 hrs by sulforhodamine B assay; assay type: functional
SF-268 = test: Cytotoxicity against human SF268 cells after 48 hrs by sulforhodamine B assay; assay type: functional
SF-295 = test: Cytotoxicity against human SF295 cells after 48 hrs by sulforhodamine B assay; assay type: functional
Candida albicans [7] = test: Antifungal activity against Candida albicans ATCC 90028 after 24 hrs by broth microdilution susceptibility assay; assay type: functional; settings: ATCC 90028, 24 h
NCI-H460 = test: Cytotoxicity against human NCI-H460 cells after 48 hrs by sulforhodamine B assay; assay type: functional
Staphylococcus aureus [8] = test: Antimicrobial activity against Staphylococcus aureus ATCC 29213 assessed clear zone in inhibition per disk by CLSI disk diffusion susceptibility assay; assay type: functional
Cryptococcus neoformans [9] = test: Antifungal activity against Cryptococcus neoformans ATCC 90112 after 48 hrs by broth microdilution susceptibility assay; assay type: functional; settings: ATCC 90112, 48 h
Staphylococcus aureus [10] = test: Antimicrobial activity against Staphylococcus aureus ATCC 29213 by broth microdilution susceptibility assay; assay type: functional
[11] = test system: Stenotrophomonas maltophilia; test: Antimicrobial activity against Stenotrophomonas maltophilia ATCC 13637 by broth microdilution susceptibility assay; assay type: functional
Candida albicans [12] = test: Antimicrobial activity against Candida albicans ATCC 90028 assessed clear zone in inhibition per disk by CLSI disk diffusion susceptibility assay; assay type: functional
[13] = Inhibition of tubulin polymerization
Enterobacter cloacae [14] = test: Antimicrobial activity against Enterobacter cloacae ATCC 13047 by broth microdilution susceptibility assay; assay type: functional
MCF7 = test: Cytotoxicity against human MCF7 cells after 48 hrs by sulforhodamine B assay; assay type: functional
Neisseria gonorrhoeae [15] = test: Antimicrobial activity against Neisseria gonorrhoeae ATCC 49226 by broth microdilution susceptibility assay; assay type: functional
[16] = test system: Stenotrophomonas maltophilia; test: Antimicrobial activity against Stenotrophomonas maltophilia ATCC 13637 assessed clear zone in inhibition per disk by CLSI disk diffusion susceptibility assay; assay type: functional
Neisseria gonorrhoeae [17] = test: Antimicrobial activity against Neisseria gonorrhoeae ATCC 49226 after 24 hrs by broth microdilution susceptibility assay; assay type: functional; settings: ATCC 49226, 24 h
Neisseria gonorrhoeae [18] = test: Antimicrobial activity against Neisseria gonorrhoeae ATCC 49226 assessed clear zone of inhibition measured per disk by CLSI disk diffusion susceptibility assay; assay type: functional
Escherichia coli [19] = test: Antimicrobial activity against Escherichia coli ATCC 25922 assessed clear zone in inhibition per disk by CLSI disk diffusion susceptibility assay; assay type: functional
Candida albicans [20] = test: Antifungal activity against Candida albicans ATCC 90028 after 48 hrs by broth microdilution susceptibility assay; assay type: functional; settings: ATCC 90028, 48 h
P388 = test: Cytotoxicity against mouse P388 cells after 48 hrs by sulforhodamine B assay; assay type: functional; settings: for EC50: P388, 48 h, read-out: ED50 (the source's name)
SK-MEL-5 = test: Cytotoxicity against human SK-MEL-5 cells after 48 hrs by sulforhodamine B assay; assay type: functional
DU-145 = test: Cytotoxicity against human DU145 cells after 48 hrs by sulforhodamine B assay; assay type: functional
Streptococcus pneumoniae [21] = test: Antimicrobial activity against Streptococcus pneumoniae ATCC 6303 by broth microdilution susceptibility assay; assay type: functional
Enterococcus faecalis [22] = test: Antimicrobial activity against Enterococcus faecalis ATCC 29212 assessed clear zone in inhibition per disk by CLSI disk diffusion susceptibility assay; assay type: functional
BXPC-3 = test: Cytotoxicity against human BxPC3 cells after 48 hrs by sulforhodamine B assay; assay type: functional
Enterobacter cloacae [23] = test: Antimicrobial activity against Enterobacter cloacae ATCC 13047 assessed clear zone in inhibition per disk by CLSI disk diffusion susceptibility assay; assay type: functional
Streptococcus pneumoniae [24] = test: Antimicrobial activity against Streptococcus pneumoniae ATCC 6303 assessed clear zone in inhibition per disk by CLSI disk diffusion susceptibility assay; assay type: functional
Micrococcus luteus [25] = test: Antimicrobial activity against Micrococcus luteus Presque Isle 456 by broth microdilution susceptibility assay; assay type: functional
KM-20L2 = test: Cytotoxicity against human KM20L2 cells after 48 hrs by sulforhodamine B assay; assay type: functional

Row | Structure (SMILES) | MIC (Enterococcus faecalis [1]) [µg/mL] | GI50 (A498) | MIC (Cryptococcus neoformans [3]) [µg/mL] | MIC (Escherichia coli [4]) [µg/mL] | MIC (Cryptococcus neoformans [5]) [µg] | MIC (Micrococcus luteus [6]) [µg] | MIC (Staphylococcus aureus [8]) [µg] | MFC (Cryptococcus neoformans [9]) [µg/mL] | MIC (Staphylococcus aureus [10]) [µg/mL] | MIC [11] [µg/mL] | MIC (Candida albicans [12]) [µg] | IC50 [13] [µM] | MIC (Enterobacter cloacae [14]) [µg/mL] | MIC (Neisseria gonorrhoeae [15]) [µg/mL] | MIC [16] [µg] | MBC (Neisseria gonorrhoeae [17]) [µg/mL] | MIC (Neisseria gonorrhoeae [18]) [µg] | MIC (Escherichia coli [19]) [µg] | MIC (Candida albicans [20]) [µg/mL] | GI50 (SK-MEL-5) | other results
1 | O=[N+]([O-])/C=C/c1ccccc1O | > 64 | inactive | 8 (≈ 48.4 µM) | 64 (≈ 388 µM) | 0.78 | 25 | 25 | 32 (≈ 194 µM) | > 64 | 32 (≈ 194 µM) | 1.56 | 4.4 | > 64 | 2 (≈ 12.1 µM) | 12.5 | 2 (≈ 12.1 µM) | <0.78 | 25 | 16 (≈ 96.9 µM) | inactive | MBC (Streptococcus pneumoniae [2]): > 64 µg/mL; GI50 (OVCAR-3): inactive; GI50 (SF-268; SF-268, 48 h): 1.2 µg/mL (≈ 7.27 µM); GI50 (SF-295): inactive; MFC (Candida albicans [7]): 32 µg/mL (≈ 194 µM); GI50 (NCI-H460; NCI-H460, 48 h): 0.95 µg/mL (≈ 5.75 µM); GI50 (MCF7; MCF7, 48 h): 0.47 µg/mL (≈ 2.85 µM); EC50 (P388): 3.5 µg/mL (≈ 21.2 µM); GI50 (DU-145; DU-145, 48 h): 1 µg/mL (≈ 6.06 µM); MIC (Streptococcus pneumoniae [21]): 32 µg/mL (≈ 194 µM); MIC (Enterococcus faecalis [22]): 50 µg; GI50 (BXPC-3; BXPC-3, 48 h): 1.1 µg/mL (≈ 6.66 µM); MIC (Enterobacter cloacae [23]): 25 µg; MIC (Streptococcus pneumoniae [24]): 1.56 µg; MIC (Micrococcus luteus [25]): > 64 µg/mL; GI50 (KM-20L2; KM-20L2, 48 h): 1.6 µg/mL (≈ 9.69 µM)
2 | COc1cc(/C=C/[N+](=O)[O-])cc(OC)c1O | > 64 | inactive | 64 (≈ 284 µM) | > 64 | 25 | >100 | >100 | 64 (≈ 284 µM) | > 64 | > 64 | 50 | 8.5 | > 64 | 4 (≈ 17.8 µM) | 50 | 4 (≈ 17.8 µM) | 1.56 | >100 | > 64 | inactive | MBC (Streptococcus pneumoniae [2]): > 64 µg/mL; GI50 (OVCAR-3): inactive; GI50 (SF-268; SF-268, 48 h): 0.54 µg/mL (≈ 2.4 µM); GI50 (SF-295): inactive; GI50 (NCI-H460; NCI-H460, 48 h): 0.38 µg/mL (≈ 1.69 µM); GI50 (MCF7; MCF7, 48 h): 0.44 µg/mL (≈ 1.95 µM); EC50 (P388): 2.2 µg/mL (≈ 9.77 µM); GI50 (DU-145; DU-145, 48 h): 0.36 µg/mL (≈ 1.6 µM); MIC (Streptococcus pneumoniae [21]): 64 µg/mL (≈ 284 µM); MIC (Enterococcus faecalis [22]): 50 µg; GI50 (BXPC-3; BXPC-3, 48 h): 1.5 µg/mL (≈ 6.66 µM); MIC (Enterobacter cloacae [23]): >100 µg; MIC (Streptococcus pneumoniae [24]): 6.25 µg; MIC (Micrococcus luteus [25]): > 64 µg/mL; GI50 (KM-20L2; KM-20L2, 48 h): 1.1 µg/mL (≈ 4.88 µM)
3 | COc1ccc(/C=C/[N+](=O)[O-])cc1O | > 64 | inactive | 32 (≈ 164 µM) | > 64 | 0.78 | >100 | 50 | 32 (≈ 164 µM) | > 64 | > 64 | 3.12 | 8.2 | > 64 | 4 (≈ 20.5 µM) | 25 | 4 (≈ 20.5 µM) | <0.78 | 25 | 16 (≈ 82 µM) | inactive | MBC (Streptococcus pneumoniae [2]): > 64 µg/mL; GI50 (OVCAR-3): inactive; GI50 (SF-268): inactive; GI50 (SF-295): inactive; MFC (Candida albicans [7]): 32 µg/mL (≈ 164 µM); GI50 (NCI-H460): inactive; GI50 (MCF7): inactive; ED50 (P388): inactive; GI50 (DU-145): inactive; MIC (Streptococcus pneumoniae [21]): 64 µg/mL (≈ 328 µM); MIC (Enterococcus faecalis [22]): >100 µg; GI50 (BXPC-3): inactive; MIC (Enterobacter cloacae [23]): 25 µg; MIC (Streptococcus pneumoniae [24]): 1.56 µg; MIC (Micrococcus luteus [25]): > 64 µg/mL; GI50 (KM-20L2): inactive
4 | COc1ccc(/C=C/[N+](=O)[O-])cc1OC | > 64 | inactive | 16 (≈ 76.5 µM) | > 64 | 3.12 | 50 | 25 | 16 (≈ 76.5 µM) | > 64 | > 64 | 6.25 | 6 | > 64 | 4 (≈ 19.1 µM) | >100 | 4 (≈ 19.1 µM) | 0.78 | 25 | 16 (≈ 76.5 µM) | inactive | GI50 (OVCAR-3): inactive; GI50 (SF-268; SF-268, 48 h): 0.71 µg/mL (≈ 3.39 µM); GI50 (SF-295): inactive; MFC (Candida albicans [7]): 16 µg/mL (≈ 76.5 µM); GI50 (NCI-H460; NCI-H460, 48 h): 0.46 µg/mL (≈ 2.2 µM); GI50 (MCF7; MCF7, 48 h): 0.53 µg/mL (≈ 2.53 µM); EC50 (P388): 0.34 µg/mL (≈ 1.63 µM); GI50 (DU-145; DU-145, 48 h): 1.4 µg/mL (≈ 6.69 µM); MIC (Streptococcus pneumoniae [21]): > 64 µg/mL; MIC (Enterococcus faecalis [22]): 25 µg; GI50 (BXPC-3; BXPC-3, 48 h): 1.5 µg/mL (≈ 7.17 µM); MIC (Enterobacter cloacae [23]): >100 µg; MIC (Streptococcus pneumoniae [24]): 12.5 µg; MIC (Micrococcus luteus [25]): > 64 µg/mL; GI50 (KM-20L2; KM-20L2, 48 h): 1.3 µg/mL (≈ 6.21 µM)
5 | COc1cc(/C=C/[N+](=O)[O-])cc(OC)c1OC | > 64 | inactive | 16 (≈ 66.9 µM) | > 64 | 3.12 | 25 | 12.5 | 16 (≈ 66.9 µM) | > 64 | > 64 | 3.12 | 4.5 | > 64 | 4 (≈ 16.7 µM) | >100 | 8 (≈ 33.4 µM) | 0.78 | >100 | 32 (≈ 134 µM) | inactive | GI50 (OVCAR-3; OVCAR-3, 48 h): 0.42 µg/mL (≈ 1.76 µM); GI50 (SF-268): inactive; GI50 (SF-295; SF-295, 48 h): 1.3 µg/mL (≈ 5.43 µM); MFC (Candida albicans [7]): 32 µg/mL (≈ 134 µM); GI50 (NCI-H460; NCI-H460, 48 h): 1.1 µg/mL (≈ 4.6 µM); GI50 (MCF7): inactive; EC50 (P388): 1.1 µg/mL (≈ 4.6 µM); GI50 (DU-145; DU-145, 48 h): 1 µg/mL (≈ 4.18 µM); MIC (Streptococcus pneumoniae [21]): > 64 µg/mL; MIC (Enterococcus faecalis [22]): 50 µg; GI50 (BXPC-3; BXPC-3, 48 h): 1.4 µg/mL (≈ 5.85 µM); MIC (Enterobacter cloacae [23]): >100 µg; MIC (Streptococcus pneumoniae [24]): 3.12 µg; MIC (Micrococcus luteus [25]): > 64 µg/mL; GI50 (KM-20L2; KM-20L2, 48 h): 1.3 µg/mL (≈ 5.43 µM)
